US20080171732A1, “New Pyridine Analogues IX 519” (AstraZeneca AB, priority 2007, published 2008)

Target: T1, P2Y12 receptor (Homo sapiens, UniProt Q9H244)
T1 construct: expressed in transfected cells; host or cells: CHO cells (membranes)
Experiment: Functional inhibition of 2-Me-S-ADP induced P2Y12 signalling (35S-GTPγS, cell membranes from P2Y12 transfected CHO-cells)
Type: biochemical
Conditions: EC80 concentration of agonist 2-methyl-thio-adenosine diphosphate, 30° C., 45 min
Method: Functional inhibition of-the P2Y12 receptor can be measured by in vitro assays using cell membranes from P2Y12 transfected CHO-cells, the methodology is indicated below.
(§1) Functional inhibition of 2-Me-S-ADP induced P2Y12 signalling: 5 μg of membranes were diluted in 200 μl of 200 mM NaCl, 1 mM MgCl2, 50 mM HEPES (pH 7.4), 0.01% BSA, 30μg/ml saponin and 10 μM GDP. To this was added an EC80 concentration of agonist (2-methyl-thio-adenosine diphosphate), the required concentration of test compound and 0.1 μCi ^35S-GTPγS. The reaction was allowed to proceed at 30° C. for 45 min. Samples were then transferred on to GF/B filters using a cell harvester and washed with wash buffer (50 mM Tris (pH 7.4), 5 mM MgCl2, 50 mM NaCl). Filters were then covered with scintilant and counted for the amount of ^35S-GTPγS retained by the filter. Maximum activity was that determined in the presence of the agonist and minimum activity in the absence of the agonist following subtraction of the value determined for non-specific activity. The effect of compounds at various concentrations was plotted according to the equation
y=A+((B−A)/(1+((C/x)̂D)))
and IC50 estimated where • A is the bottom plateau of the curve i.e. the final minimum y value • B is the top of the plateau of the curve i.e. the final maximum y value • C is the x value at the middle of the curve. This represents the log EC50 value when A+B=100 • D is the slope factor. • x is the original known x values. • Y is the original known y values.
as §1, with “30 μg/ml” for “30μg/ml”, “0. 1” for “0.1”

T1 sequence (Q9H244 whole entry): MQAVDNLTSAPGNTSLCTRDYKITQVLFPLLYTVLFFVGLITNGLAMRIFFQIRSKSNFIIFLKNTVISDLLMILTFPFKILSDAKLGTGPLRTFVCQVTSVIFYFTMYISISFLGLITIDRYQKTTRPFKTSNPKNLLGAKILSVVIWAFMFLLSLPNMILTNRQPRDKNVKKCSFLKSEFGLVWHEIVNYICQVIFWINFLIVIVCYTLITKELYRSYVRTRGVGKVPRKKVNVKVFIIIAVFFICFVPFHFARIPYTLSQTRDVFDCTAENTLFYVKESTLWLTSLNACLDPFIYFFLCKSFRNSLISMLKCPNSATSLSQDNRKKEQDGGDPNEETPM

IC50	SMILES
0.012 µM	CCOC(=O)c1cc(C#N)c(N2CCC(C(=O)NS(=O)(=O)Cc3ccccc3)CC2)nc1OC [Example 1, Ethyl6-{4-[(benzylsulfonyl)carbamoyl]piperidin-1-yl}-5-cyano-2-methoxynicotinate]
0.019 µM	CCOC(=O)c1cc(C#N)c(N2CCC(C(=O)NS(=O)(=O)Cc3ccc(C(F)(F)F)cc3)CC2)nc1OC [Example 13, Ethyl5-cyano-2-methoxy-6-[4-({[4-(trifluoromethyl)benzyl]sulfonyl}carbamoyl)piperidin-1-yl]nicotinate]
0.027 µM	COc1nc(N2CCC(C(=O)NS(=O)(=O)Cc3ccccc3)CC2)c(C#N)cc1C(=O)OC(C)C [Example 60, Isopropyl6-{4-[(benzylsulfonyl)carbamoyl]piperidin-1-yl}-5-cyano-2-methoxynicotinate]
0.132 µM	CCOC(=O)c1cc(Cl)c(N2CCC(C(=O)NS(=O)(=O)Cc3ccc(Cl)cc3)CC2)nc1SC [Example 43, Ethyl5-chloro-6-(4-{[(4-chlorobenzyl)sulfonyl]carbamoyl}piperidin-1-yl)-2-(methylthio)nicotinate]
0.047 µM	CCOC(=O)c1cc(C#N)c(N2CC(C(=O)NS(=O)(=O)Cc3ccccc3)C2)nc1CO [Example 37, Ethyl6-{3-[(benzylsulfonyl)carbamoyl]azetidin-1-yl}-5-cyano-2-(hydroxymethyl)nicotinate]

The next lines start with the compound.

SMILES	IC50
CCOC(=O)c1cc(C#N)c(N2CC(C(=O)NS(=O)(=O)Cc3cccc(F)c3F)C2)nc1OC [Example 32, Ethyl5-cyano-6-(3-{[(2,3-difluorobenzyl)sulfonyl]carbamoyl}azetidin-1-yl)-2-methoxynicotinate]	0.083 µM
CCOC(=O)c1cc(C#N)c(N2CC(C(=O)NS(=O)(=O)c3ccccc3)C2)nc1OC [Example 20, Ethyl5-cyano-2-methoxy-6-{3-[(phenylsulfonyl)carbamoyl]azetidin-1-yl}nicotinate]	0.102 µM
CCOC(=O)c1cc(C#N)c(N2CCC(C(=O)NS(=O)(=O)Cc3ccccc3)CC2)nc1CO [Example 6, Ethyl6-{4-[(benzylsulfonyl)carbamoyl]piperidin-1-yl}-5-cyano-2-(hydroxymethyl)nicotinate]	0.017 µM
CCOC(=O)c1cc(C#N)c(N2CCC(C(=O)NS(=O)(=O)Cc3ccc(F)cc3Cl)CC2)nc1OC [Example 17, Ethyl6-(4-{[(2-chloro-4-fluorobenzyl)sulfonyl]carbamoyl}piperidin-1-yl)-5-cyano-2-methoxynicotinate]	0.024 µM
CCOC(=O)c1cc(F)c(N2CCC(C(=O)NS(=O)(=O)Cc3ccccc3)CC2)nc1Cl [Example 46, Ethyl6-{4-[(benzylsulfonyl)carbamoyl]piperidin-1-yl}-2-chloro-5-fluoronicotinate]	0.048 µM
CCOC(=O)c1cc(C#N)c(N2CC(C(=O)NS(=O)(=O)Cc3ccc(F)c(F)c3)C2)nc1OC [Example 27, Ethyl5-cyano-6-(3-{[(3,4-difluorobenzyl)sulfonyl]carbamoyl}azetidin-1-yl)-2-methoxynicotinate]	0.035 µM
CCOC(=O)c1cc(C#N)c(N2CCC(C(=O)NS(=O)(=O)Cc3cccc(F)c3)CC2)nc1OC [Example 10, Ethyl5-cyano-6-(4-{[(3-fluorobenzyl)sulfonyl]carbamoyl}piperidin-1-yl)-2-methoxynicotinate]	0.016 µM
CCOC(=O)c1cc(C#N)c(N2CCC(C(=O)NS(=O)(=O)Cc3ccccc3)CC2)nc1Cn1ccnc1 [Example 49, Ethyl6-{4-[(benzylsulfonyl)carbamoyl]piperidin-1-yl}-5-cyano-2-(1H-imidazol-1-ylmethyl)nicotinate]	0.073 µM
CCOC(=O)c1cc(C#N)c(N2CCC(C(=O)NS(=O)(=O)Cc3ccc(Cl)cc3)CC2)nc1OC [Example 12, Ethyl6-(4-{[(4-chlorobenzyl)sulfonyl]carbamoyl}piperidin-1-yl)-5-cyano-2-methoxynicotinate]	0.009 µM
CCOC(=O)c1cc(C#N)c(N2CCC(C(=O)NS(=O)(=O)Cc3ccccc3)CC2)nc1Cn1cncn1 [Example 47, Ethyl6-{4-[(benzylsulfonyl)carbamoyl]piperidin-1-yl}-5-cyano-2-(1H-1,2,4-triazol-1-ylmethyl)nicotinate]	0.077 µM
CCCC(=O)c1cc(C#N)c(N2CCC(C(=O)NS(=O)(=O)Cc3ccccc3)CC2)nc1OC [Example 53, N-(Benzylsulfonyl)-1-(5-butyryl-3-cyano-6-methoxypyridin-2-yl)piperidine-4-carboxamide]	0.076 µM
